The test system of data set [1] is C. albicans. The data set is described as follows: Minimum Inhibitory Concentrations (MICs) against C. albicans, NCCLS M27-A broth dilution. Format: cell-based. As for the experimental part: For each compound synthesized, Minimum Inhibitory Concentrations (MICs) against C. albicans were determined as described in Reference Method for Broth Dilution Antifungal Susceptibility Testing of Yeasts, Approved Standard, NCCLS document M27-A (ISBN 1-56238-328-0), NCCLS, 940 West Valley Road, Suite 1400, Wayne, Pa. 19087, 1997.
(In general: Dilution methods test growth across graded concentrations, often in twofold steps.)

A short description of data set [2]: Maximum non-lethal dose (NLD), single intravenous dose in mice. The following applies: test compounds as aspartate salts in 5% mannitol, AmB as FUNGIZONE
Type of data set: in vivo, Swiss-Webster male mice. As for the experimental part:
(§1) A variety of the compounds synthesized as described in Section 5, supra, were tested in various in vivo assays, as described below. The results of the various assays are provided in TABLE 3, presented at the end of this section. In all of the in vivo assays described, the test compounds, in the form of the aspartate salts, were formulated in an aqueous vehicle (5% mannitol in sterile water; OSMITROL, Baxter Healthcare, Deerfield, Ill.), followed by appropriate dilutions. The formulations were prepared fresh before dosing.
(§2) AmB and AME were also tested for comparison. For AmB, the commercially available FUNGIZONE (Bristol-Meyers Squibb Co.) was used. Reported values are based upon the weight of the AmB active ingredient, not on the basis of the weight of the FUNGIZONE powder. AME was formulated in OSMITROL as described for the test compounds.
Maximum non-lethal dose (NLD) data were obtained for selected compounds. A single intravenous dose was administered to each of four mice (Swiss-Webster male mice; Simonsen Laboratories, Gilroy, Calif.) in several groups. The doses selected were based upon the NLDs of compounds of similar structures. After review of findings, higher or lower doses were administered and a NLD was determined. The results are tabulated in TABLE 3, below (NLD Acute Mice). The values for AmB and AME are provided for comparison

Data set [3] deals with C. albicans. The data set is described as follows: 5 day kidney bioburden evaluation in immunocompetent mice challenged with C. albicans. Format: in vivo, Swiss-Webster mice. The following applies: intraperitoneally once daily for 5 days, immunocompetent mice, C. albicans, 50% of animals with 2 log10 reduction in kidney CFU; for ED50: Candida albicans, ip, 120 h, read-out: ED50 mice 5 day. The protocol:
as §1, §2
Various polyene macrolide amide derivatives of the invention were evaluated for their protective effect when administered intraperitoneally once daily for 5 days to immunocompetent mice challenged with live C. albicans.
C. albicans was grown on Sabouraud dextrose agar (SDA) plates for 48 hr. Colonies were harvested and washed twice by centrifugation in phosphate-buffered saline (PBS). The washed pellets were resuspended in PBS and diluted to achieve the desired number of fungi per milliliter. A portion of the inoculum was plated on SDA plates to determine the colony-forming units (CFU) per milliliter.
Swiss-Webster mice (Simonsen Laboratories, Gilroy, Calif.) were administered by intravenous injection a single inoculum (0.2 mL) containing as estimated 2.0×10^5 CFU of C. albicans. The day of inoculation was designated as study day 0. Beginning three days after injection, mice were treated intraperitoneally with vehicle alone or formulated test compound once daily for 5 consecutive days.
(§3) The mice were observed daily from study day 0 through study day 10 (3 days after the last dose). Mice found dead or euthanized in extremis were removed from the study without further processing. Surviving mice were euthanized by inhalation of CO2 on study day 10 and both kidneys from each mouse were removed. Each pair of removed kidneys was homogenized in 3 mL of ice-cold PBS containing 10% glycerol. A portion of each homogenate was used to determine log10 CFU per kidney using SDA plates (48 hours of incubation at 30° C.). Kidney log10 CFU data were analyzed using a t-test. The criterion for a statistically significant response was set at p<0.01.
(§4) For comparison, the results for AmB and AME are also provided. Efficacy was defined for individual animals as a greater than 2 log10 reduction in kidney CFU relative to the mean vehicle control value.

The subject of data set [4] is C. albicans. The data set is described as follows: 7 day kidney bioburden evaluation in neutropenic mice challenged with C. albicans. Format: in vivo, Swiss-Webster mice. The following applies: intraperitoneally once daily for 7 days, 50% of animals with 2 log10 reduction in kidney CFU; for ED50: Candida albicans, ip, 168 h. As for the experimental part: as §1, §2
Various polyene macrolide amide derivatives of the invention were evaluated for their protective effect when administered intraperitoneally once daily for 7 days to neutropenic mice challenged with live C. albicans.
Swiss-Webster mice (Simonsen Laboratories, Gilroy, Calif.) were made neutropenic by intravenous administration of 5-fluorouracil (150 mg/kg) on study day −1. On study day 0, all mice received by intravenous injection a single inoculum (0.2 mL) containing as estimated 5.0×10^4 CFU of C. albicans. The day of inoculation was designated as study day 0. Beginning the day after infection (on study day 1), mice were treated intraperitoneally with vehicle alone or formulated test compound, once daily for 7 consecutive days.
as §3, with “day 1” for “day 0”, “day 8 (1 day” for “day 10 (3 days”, “day 8” for “day 10”
as §4

Data set [5] in a line: Two week range-finding toxicity study in mice. Format: in vivo, CD-1 mice. The note with it: for NOAEL at 2 week: both sexes, CD-1, mouse, in vivo, iv. As for the experimental part:
as §1, §2
Various polyene macrolide amide derivatives of the invention were evaluated to characterize their potential toxicity when administered subchronically by intravenous injection.
CD-1® mice (Charles River Laboratories, Portage, Mich.) were acclimated to laboratory conditions for at least 5 days before the start of dosing. During the acclimation period, the general condition of the mice was evaluated, and those considered healthy were used. The mice were randomly assigned to treatment groups using a stratified body weight regimen. Each treatment group consisted of 3 male and 3 female mice. The mice were housed in a room with a controlled environment and provided rodent chow and water ad libitum.
On the first day of dosing, the mice were approximately 7 to 9 weeks old and weighed 22 to 30 g. Doses were administered by intravenous injection once daily on study days 1 to 5 and 8 to 12. Dosages were selected based upon data from efficacy and toxicology studies, and ranged from 1.25 to 30 mg/kg/day. Clinical observations were recorded 0.5 hr after dosing on days 1, 3, 5, 8, 10, 12 and 15, and on any day a change was observed. Body weights were recorded prior to dosing and on study days 8 and 12, and on study day 15 at the completion of the in-life phase of the study.
Animals that were found in a moribund/deteriorating clinical state were euthanized (animal designated killed in extremis) by inhalation of CO2. The day of death for any animal found dead or killed in extremis was recorded. Any animal that died prematurely was removed from the study without further processing.
One day after completion of dosing (study day 16), all surviving mice were euthanized by inhalation of CO2. Their kidneys were preserved for histopathologic examination. The maximum no-observed-adverse-effect level (NOAEL) was determined on the basis of clinical and histopathologic findings. The values for AmB and AME are provided for comparison.

A short description of data set [6]: Ascending single-dose nephrotoxicity study in rabbits. The following applies: ascending single intravenous infusion doses, urine volume, BUN, creatinine. Format: in vivo, Female New Zealand white rabbits. The protocol:
as §1
AmB and AME were also tested for comparison. For AmB, the commercially available FUNGIZONE (Bristol-Meyers Squibb Co.) was used. […]
Various polyene macrolide amide derivatives of the invention were evaluated to determine the intravenous dose of administered compound that produces nephrotoxicity in rabbits. Nephrotoxicity was monitored by measuring urine volume and blood urine nitrogen (BUN) and creatinine. […]
Ascending single doses were administered by intravenous infusion into an ear vein at a rate of 0.6 mL/min. […] Body weights were recorded before each dose, as well as 2 days after the last dose. Blood samples were collected from the rabbits two days prior to the first dose (study day −2) and approximately 24 hr after each dose and analyzed for BUN and creatinine. […]

The conditions of data set [7]: rats; cited from earlier work.
For data set [8] the following is noted: dogs; cited from earlier work.
For data set [9] the following is noted: human, in vivo; cited from earlier work.
[10] abbreviates: Candida albicans, read-out: MIC.

SMILES strings stand for the structures. ≈ marks a conversion by molar mass, not a printed value. Where two headings read alike, the source gives them in different places.

By MIC is commonly meant the least concentration at which growth counts as inhibited. Take `COC(=O)[C@H]1[C@@H]2C[C@@H](O[C@@H]3O[C@H](C)[C@@H](O)[C@H](N)[C@@H]3O)/C=C/C=C/C=C/C=C/C=C/C=C/C=C/[C@H](C)[C@@H](O)[C@@H](C)[C@H](C)OC(=O)C[C@H](O)C[C@H](O)CC[C@@H](O)[C@H](O)C[C@H](O)C[C@](O)(C[C@@H]1O)O2` [AME, amphotericin B methyl ester, reference compound]: the MIC with C. albicans [1] was determined as 0.75 µg/mL (≈ 0.799 µM). In data set [2], the NLD acute mice is on record as 60 mg/kg. Further, the “ED50 mice 5 day” value in the data set with C. albicans [3] stood at 13.1 mg/kg. In the data set with C. albicans [4], the “ED50 mice 7 day” value was 8.3 mg/kg. In addition, the “NOAEL 2 week mice clinical” value in data set [5] (intravenous once daily on days 1 to 5 and 8 to 12, clinical findings) is reported as more than 32 mg/kg. In data set [5] (intravenous once daily on days 1 to 5 and 8 to 12, histopathologic (kidney) findings), the “NOAEL 2 week mice histological” value is given as more than 32 mg/kg. In addition, the NOAEL acute rabbit in data set [6] is listed as 7.5 mg/kg. Also, the “acute, nephro- and hepato-toxicity versus amphotericin B” value was “lower acute, nephro- and hepato-toxicity than amphotericin B” in [7]; “lower acute, nephro- and hepato-toxicity than amphotericin B” in data set [8]. The “adverse effects in clinical trial” value in data set [9] is “many patients developed progressive neurological dysfunction associated with white matter degeneration”.
A word on the ED50: it is the dose at which the effect has come halfway, by size or by number of responders. By NOAEL is commonly meant the highest tested level that showed no adverse finding. For the compound `CC1[C@H](C)OC(=O)C[C@H](O)C[C@H](O)CC[C@@H](O)[C@H](O)C[C@H](O)C[C@]2(O)C[C@H](O)C(C(=O)NCCCN3CCOCC3)C(C[C@@H](OC3O[C@H](C)[C@@H](O)[C@H](NC[C@@]4(O)OC[C@@H](O)[C@@H](O)[C@@H]4O)[C@@H]3O)/C=C/C=C/C=C/C=C/C=C/C=C/C=C/[C@H](C)[C@H]1O)O2` (stereo partly shown) [Compound 104], in the data set on C. albicans [1] (setting [10]), the minimal inhibitory concentration (MIC) stood at 2 µg/mL (≈ 1.65 µM). Besides, the NLD acute mice in [2] is listed as 20 mg/kg. Besides, the 50% effective dose (ED50) is 9 mg/kg in the data set with C. albicans [3] and 3.1 mg/kg in the data set on C. albicans [4]. In addition, the NOAEL at 2 week in data set [5] (NOAEL 2 week mice clinical) is 10 mg/kg; in [5] (NOAEL 2 week mice histological), less than 10 mg/kg.
As for `CC1[C@H](C)OC(=O)C[C@H](O)C[C@H](O)CC[C@@H](O)[C@H](O)C[C@H](O)C[C@]2(O)C[C@H](O)C(C(=O)NCCN3CCCCC3)C(C[C@@H](OC3O[C@H](C)[C@@H](O)[C@H](NC[C@@]4(O)OC[C@@H](O)[C@H](O)[C@@H]4O)[C@@H]3O)/C=C/C=C/C=C/C=C/C=C/C=C/C=C/[C@H](C)[C@H]1O)O2` (stereo partly shown) [Compound 114], in the data set with C. albicans [1] (setting [10]), the MIC was determined as 4 µg/mL (≈ 3.34 µM). Further, the NLD acute mice in [2] is recorded as 40 mg/kg. Also, the values for the ED50 in the data set with C. albicans [3] and in the data set on C. albicans [4] were 9 mg/kg and 6.1 mg/kg, respectively. The NOAEL at 2 week in data set [5] (NOAEL 2 week mice clinical) and in data set [5] (NOAEL 2 week mice histological) was 9 mg/kg each time.

These data come from patent US6664241B2, “Water-soluble amide derivatives of polyene macrolides and preparation and uses thereof” (Micrologix Biotech Inc., priority 2000, dated 2003).
